Source: US5288706A, “Medicament for prevention and remedy of diseases of the pancreas and others” (Mitsui Toatsu Chemicals, Incorporated, priority 1987, dated 1994)
Read-outs that look alike come from different tables or passages of the source. Non-standard residues stand in square brackets, D forms with d. Residues, ends and D or L forms follow the SMILES beside them. pGlu = O=C1CC[C@@H](C(=O)O)N1

What was measured:
ddy male mice = conditions: mouse, in vivo, sc
Procedure: (§1) Thus, the medicament of the present invention is a safe medicament of extremely low toxicity and can be administered for a long period of time.
No toxicity was observed when 50 mg/kg and 100 mg/kg of FTS as the effective ingredient were subcutaneously administered for consecutive 14 days to a group of five ddy male mice of 5 weeks old.

Wister rats = conditions: rat, in vivo, sc, 30 mg/kg
Procedure: as §1
No toxicity was observed when 30 mg/kg of FTS as the effective ingredient wa subcutaneously administered for consecutive 21 days to a group of ten Wister rats of 5 weeks old.

C[C@H](NC(=O)[C@@H]1CCC(=O)N1)C(=O)N[C@@H](CCCCN)C(=O)N[C@@H](CO)C(=O)N[C@@H](CCC(N)=O)C(=O)NCC(=O)NCC(=O)N[C@@H](CO)C(=O)N[C@@H](CC(N)=O)C(=O)O [FTS, pGlu-Ala-Lys-Ser-Gln-Gly-Gly-Ser-Asn] ([pGlu]AKSQGGSN-OH)
toxicity (ddy male mice; 50 mg/kg): No toxicity | toxicity (ddy male mice; 100 mg/kg): No toxicity | toxicity (Wister rats): No toxicity | toxicity (external behavior observation, biochemical diagnosis of sera, pathological anatomy) (Wister rats): no abnormal symptom
